Data: US8129389B2, “Substituted oxindole derivatives, medicaments containing the latter and use thereof” (Abbott GmbH & Co. KG, priority 2005, dated 2012)
Like-named read-outs stand apart in the source and are kept apart here.

Biological target: T1, human V1b receptors (Homo sapiens, UniProt P47901)
T1 construct: expressed in transfected cells
T1 sequence (P47901 1-424): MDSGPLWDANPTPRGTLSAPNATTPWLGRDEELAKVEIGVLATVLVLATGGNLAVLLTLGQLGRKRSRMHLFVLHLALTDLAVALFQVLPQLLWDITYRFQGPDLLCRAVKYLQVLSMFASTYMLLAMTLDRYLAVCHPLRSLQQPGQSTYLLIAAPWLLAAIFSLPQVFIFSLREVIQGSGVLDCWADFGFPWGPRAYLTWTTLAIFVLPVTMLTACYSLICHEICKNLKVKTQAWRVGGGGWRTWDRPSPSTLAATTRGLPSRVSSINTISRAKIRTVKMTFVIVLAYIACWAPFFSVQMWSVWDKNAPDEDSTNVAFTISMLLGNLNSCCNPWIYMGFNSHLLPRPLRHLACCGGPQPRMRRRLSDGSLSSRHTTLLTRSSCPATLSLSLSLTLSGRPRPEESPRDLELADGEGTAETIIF
Experiment: Vasopressin V1b receptor binding assay
Method: Vasopressin V1b Receptor Binding Assay:
These DMSO solutions were diluted 1:10 with assay buffer. The substance concentration was further diluted 1:10 in the assay mixture.
The nonspecific binding was determined with 10^−6 M AVP. Determinations in triplicate were carried out.
The affinities for the human vasopressin V1b receptor were measured, and affinity constants determined, in the above assay for the inventive examples.
The affinities of the compounds (I) of the invention for the human vasopressin V1b receptor were measured in accordance with the above assays, and the affinity constants (Ki) were determined. Table 1 below details the V1b receptor affinity of selected compounds (+++ means <10 nM and ++ means 10-100 nM).

[1] = Table 1, human vasopressin V1b receptor affinity, read-out: V1b Ki
[2] = membranes from CHO-K1 cells, 3H-AVP displacement, read-out: measured Ki values, affinities for the vasopressin V1b receptor

Compound	Ki [1]	Ki [2]
CCOc1ccccc1C1(NC(=O)N2CCN(c3ccc(C#N)cn3)CC2)C(=O)N(S(=O)(=O)c2ccccc2)c2ccc(C#N)cc21 (stereo not shown) [Example 48, 4-(5-Cyanopyridin-2-yl)piperazine-1-[1-benzenesulfonyl-5-cyano-2-oxo-3-(2-ethoxyphenyl)-2,3-dihydro-1H-indol-3-yl]carboxamide]	10 to 100 nM	< 100 nM
CCOc1ccccc1C1(NC(=O)N2CCN(c3ccc(C#N)cn3)CC2)C(=O)N(S(=O)(=O)c2ccccc2F)c2ccc(C#N)cc21 (stereo not shown) [Example 49, 4-(5-Cyanopyridin-2-yl)piperazin-1-[1-(2-fluorobenzenesulfonyl)-5-cyano-2-oxo-3-(2-ethoxyphenyl)-2,3-dihydro-1H-indol-3-yl]carboxamide]	–	< 100 nM
CCOc1ccccc1C1(NC(=O)N2CCN(c3ccc(C#N)cn3)CC2)C(=O)N(S(=O)(=O)c2ccc(C#N)cc2)c2ccc(C#N)cc21 (stereo not shown) [Example 50, 4-(5-Cyanopyridin-2-yl)piperazine-1-[1-(4-cyanobenzenesulfonyl)-5-cyano-2-oxo-3-(2-ethoxyphenyl)-2,3-dihydro-1H-indol-3-yl]carboxamide]	10 to 100 nM	–
